43 compounds from patent publication US11242361B2 (Proteostasis Therapeutics, Inc., priority 2013, dated 2022) can be followed below.

pIC50: −log10 of the molar value. A value given as a limit tells only on which side of the number the result lay.

In general, pIC50 refers to the IC50 on a negative log10 scale, so that one unit is a factor of ten.

One assay deals with USP14 (Homo sapiens (Human), UniProt P54578). The assay can be described thus: USP14 Inhibition Assay. The format is biochemical. The settings on record: average value from a minimum of two experimental determinations. As to the method: Example 17: USP14 Inhibition Assay
Chain of USP14 (P54578 whole entry, looked up): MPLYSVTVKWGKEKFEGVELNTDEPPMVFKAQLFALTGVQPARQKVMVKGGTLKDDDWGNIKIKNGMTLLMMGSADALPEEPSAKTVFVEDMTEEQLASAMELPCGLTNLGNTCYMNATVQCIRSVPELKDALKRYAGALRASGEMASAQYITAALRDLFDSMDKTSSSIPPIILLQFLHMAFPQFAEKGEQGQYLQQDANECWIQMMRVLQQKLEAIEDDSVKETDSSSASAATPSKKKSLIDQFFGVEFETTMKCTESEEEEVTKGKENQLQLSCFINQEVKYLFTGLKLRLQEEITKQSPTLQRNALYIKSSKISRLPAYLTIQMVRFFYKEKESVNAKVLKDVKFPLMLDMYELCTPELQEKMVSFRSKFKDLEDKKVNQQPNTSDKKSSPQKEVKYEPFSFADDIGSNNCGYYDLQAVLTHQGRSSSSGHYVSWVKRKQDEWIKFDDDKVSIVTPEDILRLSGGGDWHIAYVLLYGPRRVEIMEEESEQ
“I” in the Table below designates an IC50 of >5 μM, “II” in the Table below designates and IC50 between 0.5 and 5 μM, and “III” designates an IC50<0.5 μM. The IC50 values in the Table below represent the average value from a minimum of two experimental determinations.
Turning to `Cc1c(C(=O)CN2CCC[C@H]2C)c2ncc(Br)cc2n1-c1ccc(C#N)cc1` [Compound 306], the “IC50 Category” value is “IIII”.

Still in this assay, the particulars now being: average value from a minimum of two experimental determinations, read-out: IC50 Category.
With `CCNC(=O)/C=C/c1cnc2c(C(=O)CN3CCCCC3)c(C)n(-c3ccc(C#N)cc3)c2c1` [Compound 305, (E)-3-(1-(4-Cyanophenyl)-2-methyl-3-(2-(piperidin-1-yl)acetyl)-1H-pyrrolo[3,2-b]pyridin-6-yl)-N-ethylacrylamide], the pIC50 is greater than 6.30. For `Cc1c(C(=O)CN2CCC[C@@H]2C)c2ncc(Br)cc2n1-c1ccc(C#N)cc1` [Compound 307], the pIC50 was greater than 6.30. Still for that read-out and setting: then `Cc1c(C(=O)CN2CCCC[C@@H]2C)c2ncc(Br)cc2n1-c1ccc(C#N)cc1` [Compound 308], with greater than 6.30; and `Cc1c(C(=O)CN2CCCC[C@H]2C)c2ncc(Br)cc2n1-c1ccc(C#N)cc1` [Compound 309], with greater than 6.30; and `Cc1c(C(=O)CN2CCCC2(C)C)c2ncc(Br)cc2n1-c1ccc(C#N)cc1` [Compound 310], with greater than 6.30. The same measure, in the same setting: next, `COC1CCN(CC(=O)c2c(C)n(-c3ccc(C#N)cc3)c3cc(Br)cnc23)CC1` [Compound 311]: greater than 6.30; `Cc1c(C(=O)CN2CCC(CO)CC2)c2ncc(Br)cc2n1-c1ccc(C#N)cc1` [Compound 312]: 5.30 to 6.30; `Cc1c(C(=O)CN2CC=CCC2)c2ncc(Br)cc2n1-c1ccc(C#N)cc1` [Compound 314]: 5.30 to 6.30. The same measure, in the same setting: then `Cc1c(C(=O)CN2CC=CC2)c2ncc(Br)cc2n1-c1ccc(C#N)cc1` [Compound 315], with greater than 6.30; and `Cc1c(C(=O)CN2CCCCC2(C)C)c2ncc(Br)cc2n1-c1ccc(C#N)cc1` [Compound 318], with greater than 6.30.

Take `Cc1c(C(=O)CN2CCCCC2)c2ncc(C#CCOC(=O)N(C)C)cc2n1-c1ccc(C#N)cc1` [Compound 319, 3-(1-(4-Cyanophenyl)-2-methyl-3-(2-(piperidin-1-yl)acetyl)-1H-pyrrolo[3,2-b]pyridin-6-yl)prop-2-yn-1-yl Dimethylcarbamate]: the pIC50 was greater than 6.30. The same measure, in the same setting: then `[2H]C1([2H])N(CC(=O)c2c(C)n(-c3ccc(C#N)cc3)c3cc(Br)cnc23)C([2H])([2H])C([2H])([2H])C([2H])([2H])C1([2H])[2H]` [Compound 320], with greater than 6.30; and `Cc1c(C(=O)CN2CCC(O)CC2)c2ncc(/C=C/c3nnc(C(F)(F)F)o3)cc2n1-c1ccc(C#N)cc1` [Compound 321], with greater than 6.30. Same read-out and setting: next, `Cc1c(C(=O)CN2CCC(F)(F)C2)c2ncc(Br)cc2n1-c1ccc(C#N)cc1` [Compound 324]: less than 5.30.

In the case of `Cc1c(C(=O)CN2CCC2)c2ncc(Br)cc2n1-c1ccc(C#N)cc1` [Compound 325], the pIC50 is less than 5.30. Regarding `COc1cnc2c(C(=O)CN3CCCCC3)c(C)n(-c3ccc(C#N)cc3)c2c1` [Compound 326, 4-(6-Methoxy-2-methyl-3-(2-(piperidin-1-yl)acetyl)-1H-pyrrolo[3,2-b]pyridin-1-yl)benzonitrile], the negative logarithm of the IC50 (pIC50) is greater than 6.30. With `Cc1c(C(=O)CN2CCS(=O)(=O)CC2)c2ncc(Br)cc2n1-c1ccc(C#N)cc1` [Compound 327], the negative logarithm of the IC50 (pIC50) is less than 5.30.

`Cc1c(C(=O)CN2CC[C@H](O)[C@@H](O)C2)c2ncc(Br)cc2n1-c1ccc(C#N)cc1` [Compound 328]: the pIC50 was less than 5.30. With `Cc1c(C(=O)CN2CCOCC2)c2ncc(Br)cc2n1-c1ccc(C#N)cc1` [Compound 329], the negative-log IC50 (pIC50) is less than 5.30. With `Cc1c(C(=O)CN2CCN(C)CC2)c2ncc(Br)cc2n1-c1ccc(C#N)cc1` [Compound 330], the negative-log IC50 (pIC50) was less than 5.30. For `Cc1c(C(=O)CN2CCSCC2)c2ncc(Br)cc2n1-c1ccc(C#N)cc1` [Compound 331], the negative-log IC50 (pIC50) was greater than 6.30. `Cc1c(C(=O)CN2CC[C@H](O)[C@H](O)C2)c2ncc(Br)cc2n1-c1ccc(C#N)cc1` [Compound 332]: the negative logarithm of the IC50 (pIC50) is greater than 6.30.

Consider `Cc1c(C(=O)CN2CCC(O)CC2)c2ncccc2n1-c1ccc(C#N)cc1` [Compound 335], for which the pIC50 is greater than 6.30.

Regarding `CC(C)c1c(C(=O)CN2CCCCC2)c2ncccc2n1-c1ccc(C#N)cc1` [Compound 336], the negative-log IC50 (pIC50) was less than 5.30. Same read-out and setting: then `Cc1c(C(=O)CN2CCC(O)CC2)c2ccccc2n1-c1ccc(C#N)cc1` [Compound 337], with greater than 6.30. On the same count and under the same terms, then `Cc1c(C(=O)CN2C[C@H](C)C[C@H](C)C2)c2ncc(Br)cc2n1-c1ccc(C#N)cc1` [Compound 338], with less than 5.30. Consider `COc1cnc2c(C(=O)CN3CCC(O)CC3)c(C)n(-c3ccc(C#N)cc3)c2c1` [Compound 339], for which the pIC50 is greater than 6.30. Consider `CCOc1cnc2c(C(=O)CN3CCC(O)CC3)c(C)n(-c3ccc(C#N)cc3)c2c1` [Compound 340], for which the pIC50 is greater than 6.30. Same read-out and setting: then `COCCOc1cnc2c(C(=O)CN3CCC(O)CC3)c(C)n(-c3ccc(C#N)cc3)c2c1` [Compound 341], with greater than 6.30; and `Cc1c(C(=O)CN2CCC(O)CC2)c2ncc(CCNS(C)(=O)=O)cc2n1-c1ccc(Cl)cc1` [Compound 342, N-(2-(1-(4-Chlorophenyl)-3-(2-(4-hydroxypiperidin-1-yl)acetyl)-2-methyl-1H-pyrrolo[3,2-b]pyridin-6-yl)ethyl)methanesulfonamide], with greater than 6.30. On the same count and under the same terms, then `Cc1c(C(=O)CN2CC3(COC3)C2)c2ncc(Br)cc2n1-c1ccc(C#N)cc1` [Compound 343], with less than 5.30; and `Cc1c(C(=O)CN2CCNC(=O)C2)c2ncc(Br)cc2n1-c1ccc(C#N)cc1` [Compound 344], with less than 5.30. `Cc1c(C(=O)CN2CCCCO2)c2ncc(Br)cc2n1-c1ccc(C#N)cc1` [Compound 345]: the pIC50 is less than 5.30. In the case of `Cc1c(C(=O)CN2CCCCC2)c2ncc(CCN3CCCC3)cc2n1-c1ccc(Cl)cc1` [Compound 346, 1-(1-(4-Chlorophenyl)-2-methyl-6-(2-(pyrrolidin-1-yl)ethyl)-1H-pyrrolo[3,2-b]pyridin-3-yl)-2-(piperidin-1-yl)ethan-1-one], the pIC50 is greater than 6.30. For `CCCOc1cnc2c(C(=O)CN3CCC(O)CC3)c(C)n(-c3ccc(C#N)cc3)c2c1` [Compound 347], the pIC50 was greater than 6.30. As for `Cc1c(C(=O)CN2C[C@H](C)C[C@@H](C)C2)c2ncc(Br)cc2n1-c1ccc(C#N)cc1` [Compound 348], the negative-log IC50 (pIC50) is less than 5.30. Still for that read-out and setting: next, `Cc1c(C(=O)CN2C[C@@H](C)C[C@H](C)C2)c2ncc(Br)cc2n1-c1ccc(C#N)cc1` [Compound 349]: greater than 6.30; `CCOC(=O)C[C@@H](C)c1cnc2c(C(=O)CN3CCCCC3)c(C)n(-c3ccc(C#N)cc3)c2c1` [Compound 350, Ethyl (R)-3-(1-(4-Cyanophenyl)-2-methyl-3-(2-(piperidin-1-yl)acetyl)-1H-pyrrolo[3,2-b]pyridin-6-yl)butanoate]: greater than 6.30. On to `CCOC(=O)C[C@H](C)c1cnc2c(C(=O)CN3CCCCC3)c(C)n(-c3ccc(C#N)cc3)c2c1` [Compound 351, Ethyl (S)-3-(1-(4-Cyanophenyl)-2-methyl-3-(2-(piperidin-1-yl)acetyl)-1H-pyrrolo[3,2-b]pyridin-6-yl)butanoate], for which the negative-log IC50 (pIC50) is greater than 6.30.

Regarding `Cc1c(C(=O)CN2CCC(CN(C)C)CC2)c2ncc(Br)cc2n1-c1ccc(C#N)cc1` [Compound 352], the negative logarithm of the IC50 (pIC50) is greater than 6.30. Still for that read-out and setting: then `Cc1c(C(=O)CN2CCC(O)CC2)c2ncc(Br)cc2n1-c1ccc(C#N)cc1` [Compound 353], with greater than 6.30; and `Cc1c(C(=O)CN2CCC(CN)CC2)c2ncc(Br)cc2n1-c1ccc(C#N)cc1` [Compound 354], with greater than 6.30.
